# In ChEMBL document CHEMBL4673385, “Discovery of Potent Inhibitors of Streptococcus mutans Biofilm with Antivirulence Activity” (ACS Med Chem Lett, 2021):
# pIC50: −log10 of the molar value. Calls of active or inactive are those of the source. How the calls were made is not given here.
# Legend:
# Streptococcus mutans [1] = assay: Bactericidal activity against Streptococcus mutans UA159 assessed as reduction in bacterial growth at 100 uM after 24 hrs; assay type: functional, organism-based
# [2] = Solubility of compound in water; assay type: physicochemical
# Streptococcus mutans [3] = assay: Antibiofilm activity against Streptococcus mutans UA159 assessed as inhibition of biofilm formation by serial dilution method; assay type: functional, organism-based; conditions: for pIC50: Streptococcus mutans, UA159, read-out: IC50
Compound,"solubility ([2]; water, read-out: solubility)",pIC50 (Streptococcus mutans [3]),solubility ([2]; buffer),IC50 (Streptococcus mutans [3]),Activity (Streptococcus mutans [1])
NC(=O)c1ccc(NC(=O)c2cccc3ccccc23)cc1,< 5 µg/mL,–,–,–,inactive
O=C(Nc1ccccc1)c1cc2cc([N+](=O)[O-])ccc2o1,25 µg/mL,< 3.52,–,–,inactive
O=C(Nc1ccccc1)c1cccc2ccccc12,–,< 3.52,–,–,inactive
NCc1ccccc1NC(=O)c1ccc(-c2ccccc2)cc1,–,3.71,–,–,inactive
NC(=O)c1cccc(NC(=O)c2ccc3ccccc3n2)c1,10 µg/mL,–,–,–,inactive
NCc1ccccc1NC(=O)c1ccc2ccccc2c1,–,–,–,–,inactive
CC(C)(C)OC(=O)NCc1ccccc1NC(=O)c1cccc2ccccc12,5 µg/mL,3.71,–,–,inactive
COC(=O)c1cccc(NC(=O)c2ccc3ccccc3c2)c1,5 µg/mL,< 3.52,–,–,inactive
NC(=O)c1ccc(NC(=O)c2cc3cc([N+](=O)[O-])ccc3s2)cc1,–,< 3.52,–,–,inactive
NCc1ccccc1NC(=O)c1cccc2ccccc12,25 µg/mL,3.65,–,–,inactive
NCc1ccccc1NC(=O)c1cnc2ccccc2c1,5 µg/mL,–,–,–,inactive
NC(=O)c1ccc(NC(=O)c2ccc3ccccc3c2)cc1,< 5 µg/mL,3.96,–,–,inactive
COC(=O)c1cccc(NC(=O)c2ccc3ccccc3n2)c1,25 µg/mL,4.03,–,–,inactive
COc1ccc2[nH]c(C(=O)Nc3ccccc3C(N)=O)cc2c1,10 µg/mL,< 3.52,–,–,inactive
NCc1ccccc1NC(=O)c1cc2cc([N+](=O)[O-])ccc2o1,5 µg/mL,4.01,–,–,inactive
NC(=O)c1cccc(NC(=O)c2cc3cc([N+](=O)[O-])ccc3s2)c1,25 µg/mL,4.37,–,–,inactive
CC(C)(C)OC(=O)NCc1ccccc1NC(=O)c1ccc2ccccc2c1,–,4.25,–,–,inactive
O=C(Nc1ccccc1)c1cnc2ccccc2c1,5 µg/mL,< 3.52,–,–,inactive
COc1ccc2[nH]c(C(=O)Nc3ccc(C(N)=O)cc3)cc2c1,–,< 3.52,–,–,inactive
COC(=O)c1cccc(NC(=O)c2cc3ccccc3s2)c1,–,–,–,–,inactive

Compound,"solubility ([2]; water, read-out: solubility)",pIC50 (Streptococcus mutans [3]),solubility ([2]; buffer),IC50 (Streptococcus mutans [3]),Activity (Streptococcus mutans [1])
CC(C)(C)OC(=O)NCc1ccccc1NC(=O)c1ccc2ccccc2n1,< 5 µg/mL,4.17,–,–,inactive
COC(=O)c1ccc(NC(=O)c2ccc3ccccc3c2)cc1,25 µg/mL,3.95,–,–,inactive
COC(=O)c1cccc(NC(=O)c2cnc3ccccc3c2)c1,–,–,–,–,inactive
COC(=O)c1cccc(NC(=O)c2cc3cc([N+](=O)[O-])ccc3[nH]2)c1,–,–,Insoluble,Nd(Insoluble),inactive
NCc1ccccc1NC(=O)c1ccc2ccccc2n1,25 µg/mL,3.69,–,–,inactive
NC(=O)c1cccc(NC(=O)c2ccc(-c3ccccc3)cc2)c1,25 µg/mL,4.10,–,–,inactive
NC(=O)c1ccccc1NC(=O)c1ccc(-c2ccccc2)cc1,5 µg/mL,3.71,–,–,inactive
COC(=O)c1ccc(NC(=O)c2cccc3ccccc23)cc1,–,< 3.52,–,–,inactive
COC(=O)c1ccc(NC(=O)c2cnc3ccccc3c2)cc1,< 5 µg/mL,4.03,–,–,inactive
NC(=O)c1ccc(NC(=O)c2cc3cc([N+](=O)[O-])ccc3o2)cc1,–,< 3.52,–,–,inactive
O=C(Nc1ccccc1)c1ccc(-c2ccccc2)cc1,–,< 3.52,–,–,inactive
NC(=O)c1cccc(NC(=O)c2cccc3ccccc23)c1,10 µg/mL,–,–,–,inactive
O=C(Nc1ccccc1)c1ccc2ccccc2c1,–,< 3.52,–,–,inactive
NCc1ccccc1NC(=O)c1cc2cc([N+](=O)[O-])ccc2[nH]1,–,–,–,–,inactive
COC(=O)c1ccc(NC(=O)c2ccc(-c3ccccc3)cc2)cc1,–,< 3.52,–,–,inactive
NC(=O)c1ccccc1NC(=O)c1cc2cc([N+](=O)[O-])ccc2o1,5 µg/mL,–,–,–,inactive
NC(=O)c1ccc(NC(=O)c2cnc3ccccc3c2)cc1,–,< 3.52,–,–,inactive
COC(=O)c1ccc(NC(=O)c2cc3cc([N+](=O)[O-])ccc3o2)cc1,20 µg/mL,–,–,–,inactive
COC(=O)c1ccc(NC(=O)c2ccc3ccccc3n2)cc1,25 µg/mL,–,–,–,inactive
NCc1ccccc1NC(=O)c1cc2cc([N+](=O)[O-])ccc2s1,1000 µg/mL,–,–,–,inactive

# Further lines, with some results ahead:
"solubility ([2]; water, read-out: solubility)",pIC50 (Streptococcus mutans [3]),solubility ([2]; buffer),IC50 (Streptococcus mutans [3]),Compound,Activity (Streptococcus mutans [1])
20 µg/mL,4.39,–,–,COC(=O)c1ccc(NC(=O)c2cc3ccccc3s2)cc1,inactive
10 µg/mL,< 3.52,–,–,O=C(Nc1ccccc1)c1cc2cc([N+](=O)[O-])ccc2s1,inactive
25 µg/mL,4.34,–,–,NC(=O)c1ccc(NC(=O)c2cc3ccccc3s2)cc1,inactive
< 5 µg/mL,3.85,–,–,COC(=O)c1ccccc1NC(=O)c1cnc2ccccc2c1,inactive
–,–,Insoluble,Nd(Insoluble),COC(=O)c1ccccc1NC(=O)c1cc2cc(OC)ccc2[nH]1,inactive
–,< 3.52,–,–,COC(=O)c1ccccc1NC(=O)c1cc2cc([N+](=O)[O-])ccc2s1,inactive
25 µg/mL,4.26,–,–,COC(=O)c1cccc(NC(=O)c2cc3cc([N+](=O)[O-])ccc3s2)c1,inactive
10 µg/mL,3.78,–,–,NC(=O)c1ccccc1NC(=O)c1ccc2ccccc2n1,inactive
< 5 µg/mL,4.05,–,–,COC(=O)c1ccccc1NC(=O)c1ccc2ccccc2n1,inactive
–,3.82,–,–,NC(=O)c1ccccc1NC(=O)c1cccc2ccccc12,inactive
25 µg/mL,–,–,–,COC(=O)c1ccccc1NC(=O)c1ccc2ccccc2c1,inactive
–,3.78,–,–,NCc1ccccc1NC(=O)c1cc2ccccc2s1,inactive
< 5 µg/mL,< 3.52,–,–,COC(=O)c1cccc(NC(=O)c2cccc3ccccc23)c1,inactive
< 5 µg/mL,4.34,–,–,NC(=O)c1ccccc1NC(=O)c1cc2ccccc2s1,inactive
< 5 µg/mL,–,–,–,NC(=O)c1cccc(NC(=O)c2cc3ccccc3s2)c1,inactive
–,< 3.52,–,–,O=C(Nc1ccccc1)c1cc2ccccc2s1,inactive
–,< 3.52,–,–,COC(=O)c1ccccc1NC(=O)c1ccc(-c2ccccc2)cc1,inactive
–,< 3.52,–,–,COC(=O)c1ccccc1NC(=O)c1cc2ccccc2s1,inactive
